Ends that are not written are not given here. Peptide text beside a SMILES is read from it.
Tests used:
CRF2R = molecular target: T1, CRF2R (Homo sapiens, UniProt Q13324); test: CRF2R agonist activation (EC50 / Emax), called comparative CRF binding; assay type: cell-based; conditions: for Emax: read-out: CRF2R Emax
T1 sequence (Q13324 1-411): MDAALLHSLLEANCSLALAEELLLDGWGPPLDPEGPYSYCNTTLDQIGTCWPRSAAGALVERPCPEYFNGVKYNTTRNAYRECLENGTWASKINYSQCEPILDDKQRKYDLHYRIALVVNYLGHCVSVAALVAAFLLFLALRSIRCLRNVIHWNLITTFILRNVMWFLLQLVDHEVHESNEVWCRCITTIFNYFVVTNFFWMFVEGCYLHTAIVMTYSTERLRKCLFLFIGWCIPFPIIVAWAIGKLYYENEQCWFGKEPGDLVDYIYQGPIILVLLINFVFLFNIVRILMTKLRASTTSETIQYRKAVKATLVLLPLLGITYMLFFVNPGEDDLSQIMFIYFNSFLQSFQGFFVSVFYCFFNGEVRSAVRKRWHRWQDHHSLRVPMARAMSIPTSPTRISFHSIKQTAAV
How it was run: (§1)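 Agonism is scored from cAMP rise, assayed in lysates or through CRE-driven reporter expression, after peptide contact with cells bearing human CRF2R or CRF1R, compared against vehicle-treated cells.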

CRF1R = molecular target: T2, CRF1R (Homo sapiens, UniProt P34998); test: CRF1R agonist activation (EC50 / Emax), called comparative CRF binding; assay type: cell-based; conditions: for Emax: read-out: CRF1R Emax
T2 sequence (P34998 24-415): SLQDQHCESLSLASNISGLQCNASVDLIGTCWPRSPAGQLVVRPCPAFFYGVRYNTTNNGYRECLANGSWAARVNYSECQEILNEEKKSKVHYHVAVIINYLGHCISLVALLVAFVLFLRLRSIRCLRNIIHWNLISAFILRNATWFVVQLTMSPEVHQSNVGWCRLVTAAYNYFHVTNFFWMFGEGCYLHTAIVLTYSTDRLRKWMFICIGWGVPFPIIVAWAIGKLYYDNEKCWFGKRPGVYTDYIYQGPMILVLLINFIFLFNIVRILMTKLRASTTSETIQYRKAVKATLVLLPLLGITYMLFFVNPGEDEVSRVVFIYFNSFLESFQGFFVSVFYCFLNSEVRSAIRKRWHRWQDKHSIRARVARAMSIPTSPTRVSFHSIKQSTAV
How it was run: as §1

Compound: CC[C@H](C)[C@H](NC(=O)[C@H](C)NC(=O)[C@H](CC(N)=O)NC(=O)[C@H](CCC(N)=O)NC(=O)[C@H](CCC(=O)O)NC(=O)[C@H](C)NC(=O)[C@H](CCCNC(=N)N)NC(=O)[C@H](CCC(=O)O)NC(=O)[C@H](CCCNC(=N)N)NC(=O)[C@H](CCC(N)=O)NC(=O)[C@H](CO)NC(=O)[C@H](CCC(N)=O)NC(=O)[C@@H](NC(=O)[C@H](CCCNC(=N)N)NC(=O)[C@H](C)NC(=O)[C@H](CC(C)C)NC(=O)[C@H](CCC(=O)O)NC(=O)[C@H](CC(C)C)NC(=O)[C@H](CC(C)C)NC(=O)[C@@H](NC(=O)[C@H](CCCNC(=N)N)NC(=O)[C@H](CC(C)C)NC(=O)[C@H](CC(C)C)NC(=O)[C@H](Cc1ccc(O)cc1)NC(=O)[C@@H](NC(=O)[C@@H]1CCCN1C(=O)[C@H](CC(C)C)NC(=O)[C@H](CC(=O)O)NC(=O)[C@@H](NC(=O)[C@H](CO)NC(=O)[C@H](CC(C)C)NC(=O)[C@H](CO)NC(=O)[C@@H]1CCCN1C(=O)[C@H](CC(N)=O)NC(=O)[C@@H](N)CC(=O)O)[C@@H](C)CC)[C@@H](C)O)[C@@H](C)O)[C@@H](C)O)C(=O)N[C@H](C(=O)N[C@@H](Cc1ccccc1)C(=O)N[C@@H](C)C(=O)N[C@@H](CO)C(=O)N[C@H](C(N)=O)C(C)C)[C@@H](C)CC [compound 173] (H-DNPSLSIDLPTYLLRTLLELARTQSQRERAEQNAIIFASV-NH2)
- Emax (CRF2R): 65.2%
- Emax (CRF1R): 6.05%

Compound: NDDPPISIDLPFQLLRNMIEMARIENEREQAGLNAKYLAEV-NH2 [compound 258]
- Emax (CRF2R): 49.3%
- Emax (CRF1R): 23.6%

Compound: CC[C@H](C)[C@H](N)C(=O)N[C@H](C(=O)N[C@@H](CC(C)C)C(=O)N[C@@H](CO)C(=O)N[C@@H](CC(C)C)C(=O)N[C@@H](CC(=O)O)C(=O)N[C@H](C(=O)N1CCC[C@H]1C(=O)N[C@H](C(=O)NCC(=O)N[C@@H](CC(C)C)C(=O)N[C@@H](CC(C)C)C(=O)N[C@@H](CCC(N)=O)C(=O)N[C@H](C(=O)N[C@@H](CC(C)C)C(=O)N[C@@H](CC(C)C)C(=O)N[C@@H](CCC(=O)O)C(=O)N[C@@H](CCC(N)=O)C(=O)N[C@@H](C)C(=O)N[C@@H](CCCNC(=N)N)C(=O)N[C@@H](Cc1c[nH]cn1)C(=O)N[C@@H](C)C(=O)N[C@@H](C)C(=O)N[C@@H](C)C(=O)N[C@@H](Cc1c[nH]cn1)C(=O)N[C@@H](C)C(=O)N[C@@H](C)C(=O)N[C@@H](C)C(=O)N[C@@H](Cc1c[nH]cn1)C(=O)N[C@@H](C)C(=O)N[C@@H](CCC(N)=O)C(=O)N[C@@H](C)C(=O)N[C@@H](Cc1c[nH]cn1)C(=O)N[C@H](C(=O)N[C@@H](CC(C)C)C(=O)N[C@@H](C)C(=O)N[C@@H](Cc1c[nH]cn1)C(=O)N[C@H](C(N)=O)C(C)C)[C@@H](C)CC)[C@@H](C)CC)[C@@H](C)CC)C(C)C)C(C)C [compound 367] (H-IVLSLDVPIGLLQILLEQARHAAAHAAAHAQAHILAHV-NH2)
- EC50 (CRF2R; read-out: CRF2R EC50): ≥ 100 nM
- Emax (CRF2R): 18%
- EC50 (CRF1R; read-out: CRF1R EC50): ≥ 1000 nM
- Emax (CRF1R): 6%

Compound: CC[C@H](C)[C@H](N)C(=O)N[C@H](C(=O)N[C@@H](CC(C)C)C(=O)N[C@@H](CO)C(=O)N[C@@H](CC(C)C)C(=O)N[C@@H](CC(=O)O)C(=O)N[C@H](C(=O)N1CCC[C@H]1C(=O)N[C@H](C(=O)NCC(=O)N[C@@H](CC(C)C)C(=O)N[C@@H](CC(C)C)C(=O)N[C@@H](CCC(N)=O)C(=O)N[C@H](C(=O)N[C@@H](CC(C)C)C(=O)N[C@H](C(=O)N[C@@H](CCC(=O)O)C(=O)N[C@H](C(=O)N[C@@H](CCC(=O)O)C(=O)N[C@@H](CCCCN)C(=O)N[C@@H](CCC(N)=O)C(=O)N[C@@H](CCC(=O)O)C(=O)N[C@@H](CCCCN)C(=O)N[C@@H](CCC(=O)O)C(=O)N[C@@H](CCCCN)C(=O)N[C@@H](CCC(N)=O)C(=O)N[C@@H](CCC(N)=O)C(=O)N[C@@H](C)C(=O)N[C@@H](C)C(=O)N[C@@H](CC(N)=O)C(=O)N[C@@H](CC(N)=O)C(=O)N[C@@H](CCCNC(=N)N)C(=O)N[C@@H](CC(C)C)C(=O)N[C@@H](CC(C)C)C(=O)N[C@@H](CC(C)C)C(=O)N[C@@H](CC(=O)O)C(=O)N[C@H](C(=O)N[C@H](C(N)=O)[C@@H](C)CC)[C@@H](C)O)[C@@H](C)CC)[C@@H](C)CC)[C@@H](C)CC)[C@@H](C)CC)C(C)C)C(C)C [compound 154] (H-IVLSLDVPIGLLQILIEIEKQEKEKQQAANNRLLLDTI-NH2; N-terminus assumed)
- Emax (CRF2R): 100%
- Emax (CRF1R): 7%

Reference: patent US6936585B2, “Corticotropin releasing factor 2 receptor agonists” (priority 2002, dated 2005)
